Data published in the Kinase Knowledgebase extract (Sharma et al. 2016).

Biological target: PIK3CA (human) (UniProt P42336)
Assay: Assessment of PIK3CA Kinase Activity

Chain of PIK3CA (human) (P42336 whole entry, looked up): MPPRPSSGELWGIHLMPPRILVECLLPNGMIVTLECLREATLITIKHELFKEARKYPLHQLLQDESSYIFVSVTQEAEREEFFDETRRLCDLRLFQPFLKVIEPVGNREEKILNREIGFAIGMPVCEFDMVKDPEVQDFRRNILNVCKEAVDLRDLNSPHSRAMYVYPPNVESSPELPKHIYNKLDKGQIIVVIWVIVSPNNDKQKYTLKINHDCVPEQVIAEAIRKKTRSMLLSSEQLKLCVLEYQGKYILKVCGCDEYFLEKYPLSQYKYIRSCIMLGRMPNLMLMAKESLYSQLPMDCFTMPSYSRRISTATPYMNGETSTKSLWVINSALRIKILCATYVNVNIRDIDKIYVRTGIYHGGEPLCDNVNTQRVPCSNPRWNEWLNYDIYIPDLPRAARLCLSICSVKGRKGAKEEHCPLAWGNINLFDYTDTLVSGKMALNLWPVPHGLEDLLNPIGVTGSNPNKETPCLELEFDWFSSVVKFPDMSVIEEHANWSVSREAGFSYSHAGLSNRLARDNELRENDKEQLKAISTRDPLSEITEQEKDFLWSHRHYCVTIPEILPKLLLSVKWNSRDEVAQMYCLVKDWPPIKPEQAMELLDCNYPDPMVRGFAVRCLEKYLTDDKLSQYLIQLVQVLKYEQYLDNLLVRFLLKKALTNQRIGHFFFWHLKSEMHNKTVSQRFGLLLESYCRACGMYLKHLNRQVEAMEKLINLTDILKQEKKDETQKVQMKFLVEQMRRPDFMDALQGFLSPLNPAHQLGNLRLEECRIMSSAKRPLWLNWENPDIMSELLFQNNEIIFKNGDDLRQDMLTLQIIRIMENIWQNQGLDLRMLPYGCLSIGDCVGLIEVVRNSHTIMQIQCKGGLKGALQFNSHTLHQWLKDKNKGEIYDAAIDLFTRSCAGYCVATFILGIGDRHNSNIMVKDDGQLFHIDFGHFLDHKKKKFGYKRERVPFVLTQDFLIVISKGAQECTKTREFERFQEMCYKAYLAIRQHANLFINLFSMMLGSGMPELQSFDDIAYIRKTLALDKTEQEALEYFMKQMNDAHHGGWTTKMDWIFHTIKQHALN

**Q.** How did the IC50 turn out when `Cn1c(CN2CCC(C(C)(C)O)CC2)nc2c(N3CCOCC3)nc(-n3c(C#N)cc4ccccc43)nc21` was run?
**A.** Its IC50 is 5300 nM.

**Q.** How did the IC50 turn out when `O=C1COC2(CCN(Cc3cc4nc(-c5c[nH]c6ccccc56)nc(N5CCOCC5)c4s3)CC2)CN1` was run?
**A.** Its IC50 is 1380 nM.

**Q.** Which IC50 does the source give for `CN(C)C1CCN(Cc2cc3nc(-c4c[nH]c5ccccc45)nc(N4CCOCC4)c3s2)CC1` here?
**A.** The IC50 was 495 nM.

**Q.** With `CN(C)C1CCN(Cc2cc3nc(-c4c[nH]c5ccc(F)cc45)nc(N4CCOCC4)c3s2)CC1` as the molecule, how does the IC50 read?
**A.** The IC50 was 1330 nM.

**Q.** With `CN(C)C1CCN(Cc2cc3nc(N4CCc5ccccc54)nc(N4CCOCC4)c3s2)CC1` as the molecule, how does the IC50 read?
**A.** Its IC50 is 707 nM.

**Q.** How did the IC50 turn out when `CN(C)C1CCN(Cc2cc3nc(-n4ccc5cc(O)ccc54)nc(N4CCOCC4)c3s2)CC1` was run?
**A.** Its IC50 is 814 nM.

**Q.** `CC(C)(C(N)=O)N1CCN(Cc2cc3nc(-c4c(C#N)[nH]c5ccccc45)nc(N4CCOCC4)c3s2)CC1` was tested. Which IC50 did it give?
**A.** Its IC50 is 809 nM.

**Q.** For `Cc1cc2cc(F)ccc2n1-c1nc(N2CCOCC2)c2sc(CN3CCC(N(C)C)CC3)cc2n1`, which IC50 is on record?
**A.** Its IC50 is 1600 nM.

**Q.** For `CN(C)[C@@H]1CCN(Cc2nc3c(N4CCOCC4)nc(-c4c[nH]c5ccccc45)nc3n2C)C[C@@H]1F`, which IC50 is on record?
**A.** Its IC50 is 720 nM.

**Q.** With `Cn1c(CN2CCC(N3CCOCC3)CC2)nc2c(N3CCOCC3)nc(-c3c[nH]c4ccccc34)nc21` as the molecule, how does the IC50 read?
**A.** Its IC50 is 5010 nM.

**Q.** How did the IC50 turn out when `CN(C)C1CCN(Cc2cc3nc(-n4ccc5ccccc54)nc(N4CCOCC4)c3s2)CC1` was run?
**A.** Its IC50 is 562 nM.

**Q.** For `c1ccc2c(-c3nc(N4CCOCC4)c4nc(CN5CC(N6CCOCC6)C5)sc4n3)c[nH]c2c1`, which IC50 is on record?
**A.** The IC50 was 396 nM.

**Q.** For `COCc1cc2ccccc2n1-c1nc(N2CCOCC2)c2nc(CN3CCC(C(C)(C)O)CC3)n(C)c2n1`, which IC50 is on record?
**A.** The IC50 was 5390 nM.

**Q.** Which IC50 does the source give for `CC(C)(OCCN1CCCC1)c1cc2nc(-c3c[nH]c4ccccc34)nc(N3CCOCC3)c2s1` here?
**A.** The IC50 was 529 nM.
